According to publication PMC10303200 (ACS Central Science, 2023):
“And” between values parts separate entries of the source, which are not always exact repeats. Equal values may be shown once. Read-outs that look alike come from different tables or passages of the source.

Legend:
GAL-3C [1] = biological target: T1, GAL-3C (Homo sapiens, UniProt P17931); test: Direct native ESI-MS at known concentrations with single glycans, 200 mM ammonium acetate, pH 6.9, 25 °C.; assay type: binding; parameters: gene LGALS3; C-terminal carbohydrate recognition domain fragment, residues 107-250; settings: SD; read-out: Kd (nMS), Table S2
T1 sequence (P17931 107-250): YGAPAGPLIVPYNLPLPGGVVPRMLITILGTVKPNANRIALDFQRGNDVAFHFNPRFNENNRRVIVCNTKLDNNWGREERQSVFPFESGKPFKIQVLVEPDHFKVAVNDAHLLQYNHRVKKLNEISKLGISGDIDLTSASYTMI

GAL-3C [2] = biological target: T1, GAL-3C; test: COIN-nMS (slow mixing in nanoESI emitter, fit of eq 12) at one glycan concentration, 200 mM ammonium acetate, pH 6.9, 25 °C.; assay type: binding; parameters: gene LGALS3; C-terminal carbohydrate recognition domain fragment, residues 107-250; settings: SD; read-out: Kd (COIN-nMS, individual experiments), Table S2
GAL-3C [3] = biological target: T1, GAL-3C; test: COIN-nMS, global fit over several glycan concentrations, 200 mM ammonium acetate, pH 6.9, 25 °C.; assay type: binding; parameters: gene LGALS3; C-terminal carbohydrate recognition domain fragment, residues 107-250; settings: SD; read-out: Kd (COIN-nMS, global fit), Table S2
GAL-3C [4] = biological target: T1, GAL-3C; test: Literature reference values quoted in the results table, conditions not restated.; assay type: binding; parameters: gene LGALS3; C-terminal carbohydrate recognition domain fragment, residues 107-250; settings: SD; read-out: Kd (Literature), Table S2; cited from earlier work
[5] = biological target: RCA-I (Ricinus communis agglutinin) (Ricinus communis, UniProt P06750); assay type: binding
DC-SIGN CRD [6] = biological target: T2, DC-SIGN CRD (Homo sapiens, UniProt Q9NNX6); test: COIN-nMS affinity measurement; assay type: binding; parameters: The carbohydrate recognition domain (CRD) of DC-SIGN (residues 250–404, MW 17 794 Da); made in house; settings: glycans present as a mixture (G2, G5, G10, G14-G20); average of six measurements; pH 7.4; read-out: Kd (COIN-nMS)
T2 sequence (Q9NNX6 250-404): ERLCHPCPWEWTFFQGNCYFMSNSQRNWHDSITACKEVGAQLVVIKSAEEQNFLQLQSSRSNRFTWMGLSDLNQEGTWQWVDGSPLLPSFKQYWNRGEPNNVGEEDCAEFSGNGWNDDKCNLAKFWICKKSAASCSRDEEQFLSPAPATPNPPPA

DC-SIGN CRD [7] = biological target: T2, DC-SIGN CRD; test: direct nMS affinity measurement; assay type: binding; parameters: The carbohydrate recognition domain (CRD) of DC-SIGN (residues 250–404, MW 17 794 Da); made in house; settings: glycans present as a mixture (G2, G5, G10, G14-G20); pH 7.4
Siglec-7 = settings: ITC; cited from earlier work

CC(=O)N[C@H]1C(O)O[C@H](CO)[C@@H](O[C@@H]2O[C@H](CO)[C@H](O)[C@H](O[C@H]3O[C@H](CO)[C@H](O)[C@H](O)[C@H]3O)[C@H]2O[C@@H]2O[C@@H](C)[C@@H](O)[C@@H](O)[C@@H]2O)[C@@H]1O (stereo partly drawn) [G1, α-D-Gal-(1→3)-[α-L-Fuc(1→2)]-β-D-Gal(1→4)-D-GlcNAc]
Kd (GAL-3C [1]): 4.2 µM
Kd (GAL-3C [2]): 3.2 µM and 3.7 µM and 5.8 µM
Kd (GAL-3C [3]): 3.8 µM
Kd (GAL-3C [4]): 4.5 µM

CC(=O)N[C@H]1[C@H](O[C@H]2[C@H](O)[C@@H](NC(C)=O)C(O)O[C@@H]2CO[C@@H]2O[C@@H](C)[C@@H](O)[C@@H](O)[C@@H]2O)O[C@H](CO)[C@@H](O[C@@H]2O[C@H](CO[C@H]3O[C@H](CO)[C@@H](O)[C@H](O)[C@@H]3O[C@@H]3O[C@H](CO)[C@@H](O[C@@H]4O[C@H](CO)[C@H](O)[C@H](O)[C@H]4O)[C@H](O)[C@H]3NC(C)=O)[C@@H](O)[C@H](O[C@H]3O[C@H](CO)[C@@H](O)[C@H](O)[C@@H]3O[C@@H]3O[C@H](CO)[C@@H](O[C@@H]4O[C@H](CO)[C@H](O)[C@H](O)[C@H]4O)[C@H](O)[C@H]3NC(C)=O)[C@@H]2O)[C@@H]1O (stereo partly drawn) [HexNAc4Hex5Fuc1]
Kd ([5]; pH 6.9; read-out: Kd (Native)): 1.4 ± 0.4 µM

α-D-Man-(1→2)-α-D-Man-(1→3)-[α-D-Man-(1→6)-[α-D-Man-(1→2)-α-D-Man-(1→3)]-α-D-Man [Glycan G15]
Kd (DC-SIGN CRD [6]): 410 ± 40 µM
Kd (DC-SIGN CRD [7]): 390 ± 50 µM

CC(=O)N[C@H]1[C@H]([C@H](O)[C@H](O)CO)O[C@@](O[C@H](CO)[C@@H](O)[C@@H]2O[C@@](O[C@H]3[C@@H](O)[C@@H](CO)O[C@@H](O[C@H]4[C@H](O)[C@@H](O)C(O)O[C@@H]4CO)[C@@H]3O)(C(=O)O)C[C@H](O)[C@H]2NC(C)=O)(C(=O)O)C[C@@H]1O (stereo partly drawn) [GD3, α-D-Neu5Ac-(2→8)-α-D-Neu5Ac-(2→3)-β-D-Gal-(1→4)-D-Glc]
Kd (Siglec-7): 98 µM

CC(=O)N[C@H]1[C@H](O[C@H]2[C@H](O)[C@@H](NC(C)=O)C(O)O[C@@H]2CO)O[C@H](CO)[C@@H](O[C@@H]2O[C@H](CO[C@H]3O[C@H](CO)[C@@H](O)[C@H](O)[C@@H]3O[C@@H]3O[C@H](CO)[C@@H](O[C@@H]4O[C@H](CO)[C@H](O)[C@H](O)[C@H]4O)[C@H](O)[C@H]3NC(C)=O)[C@@H](O)[C@H](O[C@H]3O[C@H](CO)[C@@H](O)[C@H](O)[C@@H]3O[C@@H]3O[C@H](CO)[C@@H](O[C@@H]4O[C@H](CO)[C@H](O)[C@H](O)[C@H]4O)[C@H](O)[C@H]3NC(C)=O)[C@@H]2O)[C@@H]1O (stereo partly drawn) [HexNAc4Hex5]
Kd ([5]; read-out: Kd (Native); pH 6.9): 1.22 ± 0.03 µM
